Laboratory results reported in ChEMBL document CHEMBL5380790 (J Med Chem, 2023).
In brackets after ≈: the same amount, converted by molar mass. Activity calls are given as the source filed them. The rule behind the calls is not given here.

Tests used:
[1] = target: hERG (KCNH2) potassium channel (Homo sapiens, UniProt Q12809); experiment: Inhibition of human ERG potassium channel transfected in HEK293 cells at holding potential -80 mV at 10 uM and measured for 5 mins by whole cell patch clamp assay; format: toxicity, cell-based; details: HEK293 cells transfected with hERG
Sequence of hERG (KCNH2) potassium channel (Q12809 whole entry): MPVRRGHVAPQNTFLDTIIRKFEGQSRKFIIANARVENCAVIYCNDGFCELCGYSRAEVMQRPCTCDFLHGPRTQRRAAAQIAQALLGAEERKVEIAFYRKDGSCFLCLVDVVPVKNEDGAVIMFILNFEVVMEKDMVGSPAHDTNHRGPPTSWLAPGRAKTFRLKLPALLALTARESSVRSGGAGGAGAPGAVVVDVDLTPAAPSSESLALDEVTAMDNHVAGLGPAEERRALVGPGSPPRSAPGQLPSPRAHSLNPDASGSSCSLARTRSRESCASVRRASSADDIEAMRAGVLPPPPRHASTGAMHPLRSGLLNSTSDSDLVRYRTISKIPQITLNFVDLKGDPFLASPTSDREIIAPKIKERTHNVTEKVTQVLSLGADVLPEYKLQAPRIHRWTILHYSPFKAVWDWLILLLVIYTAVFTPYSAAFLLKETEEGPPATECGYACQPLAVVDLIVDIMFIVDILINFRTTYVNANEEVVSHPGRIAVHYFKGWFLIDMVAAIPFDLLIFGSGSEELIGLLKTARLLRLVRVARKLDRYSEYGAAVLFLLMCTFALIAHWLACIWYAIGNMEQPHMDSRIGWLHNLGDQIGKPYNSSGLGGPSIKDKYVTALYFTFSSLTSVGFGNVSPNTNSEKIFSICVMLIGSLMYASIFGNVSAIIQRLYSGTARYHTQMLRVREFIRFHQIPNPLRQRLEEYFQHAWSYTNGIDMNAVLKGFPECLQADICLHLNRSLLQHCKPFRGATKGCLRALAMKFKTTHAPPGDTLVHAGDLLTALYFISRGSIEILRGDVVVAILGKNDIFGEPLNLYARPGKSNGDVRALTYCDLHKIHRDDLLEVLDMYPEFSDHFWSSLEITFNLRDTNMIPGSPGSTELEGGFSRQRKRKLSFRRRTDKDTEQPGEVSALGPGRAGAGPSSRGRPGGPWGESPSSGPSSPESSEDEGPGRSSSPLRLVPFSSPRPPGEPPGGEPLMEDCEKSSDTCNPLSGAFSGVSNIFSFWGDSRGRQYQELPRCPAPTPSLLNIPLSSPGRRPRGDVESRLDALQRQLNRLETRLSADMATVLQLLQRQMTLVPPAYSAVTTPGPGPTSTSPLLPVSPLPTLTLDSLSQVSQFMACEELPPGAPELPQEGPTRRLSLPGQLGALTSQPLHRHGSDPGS

[2] = Apparent passive permeability of compound in human Caco-2 cells at 1 uM and measured after 2 hrs by LC-MS/MS analysis; format: ADME, cell-based
[3] = Dissociation constant, pKa of the compound; format: physicochemical
[4] = Octanol-water distribution coefficient, logD of the compound at pH 7.4; format: physicochemical
[5] = Efflux ratio of apparent permeability from basolateral to apical side over apical to basolateral side in human Caco-2 cells at 1 uM and measured after 2 hrs by LC-MS/MS analysis; format: ADME, cell-based
[6] = target: Mast/stem cell growth factor receptor Kit (Homo sapiens, UniProt P10721, DELTA560/V654A); format: cell-based, GIST-430/654
Sequence of Mast/stem cell growth factor receptor Kit (Homo sapiens, UniProt P10721, DELTA560/V654A) (P10721 whole entry, looked up, stated change not applied): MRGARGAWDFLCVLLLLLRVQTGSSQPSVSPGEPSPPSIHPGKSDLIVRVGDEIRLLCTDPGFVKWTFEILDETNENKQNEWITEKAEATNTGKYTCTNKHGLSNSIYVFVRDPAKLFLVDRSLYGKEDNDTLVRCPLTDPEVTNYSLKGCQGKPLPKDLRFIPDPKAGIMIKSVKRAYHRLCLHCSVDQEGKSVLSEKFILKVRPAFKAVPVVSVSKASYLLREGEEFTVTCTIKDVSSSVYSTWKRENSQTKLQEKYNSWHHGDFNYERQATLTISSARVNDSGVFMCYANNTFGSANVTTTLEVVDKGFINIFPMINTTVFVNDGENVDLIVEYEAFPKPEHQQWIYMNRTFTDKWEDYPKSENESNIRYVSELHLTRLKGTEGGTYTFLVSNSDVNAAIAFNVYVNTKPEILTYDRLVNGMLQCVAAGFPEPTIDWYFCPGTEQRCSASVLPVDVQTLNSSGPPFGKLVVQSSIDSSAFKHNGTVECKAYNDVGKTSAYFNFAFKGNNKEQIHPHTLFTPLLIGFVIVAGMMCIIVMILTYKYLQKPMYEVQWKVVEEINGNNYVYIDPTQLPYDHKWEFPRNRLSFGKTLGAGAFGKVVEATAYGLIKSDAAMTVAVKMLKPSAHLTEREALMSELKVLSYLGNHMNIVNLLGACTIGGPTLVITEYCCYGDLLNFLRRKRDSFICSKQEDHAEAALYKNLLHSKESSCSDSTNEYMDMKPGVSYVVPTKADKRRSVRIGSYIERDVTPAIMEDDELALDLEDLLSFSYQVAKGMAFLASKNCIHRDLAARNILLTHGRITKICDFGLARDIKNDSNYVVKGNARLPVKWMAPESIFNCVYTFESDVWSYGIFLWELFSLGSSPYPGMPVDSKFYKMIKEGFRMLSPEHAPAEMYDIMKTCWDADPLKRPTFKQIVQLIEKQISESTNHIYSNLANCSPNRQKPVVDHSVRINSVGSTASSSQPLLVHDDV

[7] = Metabolic stability in human hepatocytes assessed as intrinsic clearance measured per million cells; format: ADME, cell-based, Hepatocyte; details: read-out: CLH
[8] = Solubility of compound in FaSSIF at pH 6.5; format: physicochemical
[9] = target: Mast/stem cell growth factor receptor Kit (Homo sapiens, UniProt P10721, V654A); experiment: Inhibition of recombinant human KIT V654A mutant using polyGT and ATP as substrate preincubated for 20 mins followed by substrate addition and measured after 240 mins by FRET assay
Sequence of Mast/stem cell growth factor receptor Kit (Homo sapiens, UniProt P10721, V654A) (P10721 26-976 V654A limits assumed): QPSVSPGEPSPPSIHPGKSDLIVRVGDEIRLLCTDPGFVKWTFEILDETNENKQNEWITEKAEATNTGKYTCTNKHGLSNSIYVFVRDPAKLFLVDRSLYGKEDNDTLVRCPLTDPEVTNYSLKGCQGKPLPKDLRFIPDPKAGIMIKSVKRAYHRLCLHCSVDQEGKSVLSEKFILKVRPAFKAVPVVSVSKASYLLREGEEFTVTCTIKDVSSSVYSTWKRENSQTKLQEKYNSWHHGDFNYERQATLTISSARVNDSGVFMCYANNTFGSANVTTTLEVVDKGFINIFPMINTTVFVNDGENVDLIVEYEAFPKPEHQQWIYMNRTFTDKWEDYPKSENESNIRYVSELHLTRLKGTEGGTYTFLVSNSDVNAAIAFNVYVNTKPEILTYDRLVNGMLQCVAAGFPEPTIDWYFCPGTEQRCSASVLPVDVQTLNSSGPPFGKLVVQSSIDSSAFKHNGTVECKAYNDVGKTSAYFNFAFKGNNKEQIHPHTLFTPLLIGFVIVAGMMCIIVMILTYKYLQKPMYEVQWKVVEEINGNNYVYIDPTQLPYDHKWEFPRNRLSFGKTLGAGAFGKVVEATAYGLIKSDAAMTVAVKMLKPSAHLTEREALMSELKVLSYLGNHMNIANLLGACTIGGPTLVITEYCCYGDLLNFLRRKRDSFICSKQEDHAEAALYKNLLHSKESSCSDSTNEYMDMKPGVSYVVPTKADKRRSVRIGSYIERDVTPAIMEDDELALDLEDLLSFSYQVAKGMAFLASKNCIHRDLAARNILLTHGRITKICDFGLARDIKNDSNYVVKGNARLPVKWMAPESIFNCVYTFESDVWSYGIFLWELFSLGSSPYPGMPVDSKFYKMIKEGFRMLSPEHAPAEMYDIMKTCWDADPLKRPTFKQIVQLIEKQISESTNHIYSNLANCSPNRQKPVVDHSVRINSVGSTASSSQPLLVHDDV

[10] = Metabolic stability in mouse liver microsomes assessed as intrinsic clearance in presence of NADPH by UPLC analysis; format: ADME, Microsome; details: read-out: CLH
[11] = Metabolic stability in human liver microsomes assessed as intrinsic clearance in presence of NADPH by UPLC analysis; format: ADME, Microsome; details: read-out: CLH
[12] = Kinetic solubility of compound in PBS buffer at pH 7.4 and measured after 2 hrs by HPLC-UV analysis; format: physicochemical; details: read-out: Kinetic_solubility
[13] = target: Receptor-type tyrosine-protein kinase FLT3 (Homo sapiens) (UniProt P36888); experiment: Inhibition of FLT3 (unknown origin) at 1 uM using 33P-ATP as substrate incubated for 120 mins by radiometric kinase assay
Sequence of Receptor-type tyrosine-protein kinase FLT3 (Homo sapiens) (P36888 whole entry): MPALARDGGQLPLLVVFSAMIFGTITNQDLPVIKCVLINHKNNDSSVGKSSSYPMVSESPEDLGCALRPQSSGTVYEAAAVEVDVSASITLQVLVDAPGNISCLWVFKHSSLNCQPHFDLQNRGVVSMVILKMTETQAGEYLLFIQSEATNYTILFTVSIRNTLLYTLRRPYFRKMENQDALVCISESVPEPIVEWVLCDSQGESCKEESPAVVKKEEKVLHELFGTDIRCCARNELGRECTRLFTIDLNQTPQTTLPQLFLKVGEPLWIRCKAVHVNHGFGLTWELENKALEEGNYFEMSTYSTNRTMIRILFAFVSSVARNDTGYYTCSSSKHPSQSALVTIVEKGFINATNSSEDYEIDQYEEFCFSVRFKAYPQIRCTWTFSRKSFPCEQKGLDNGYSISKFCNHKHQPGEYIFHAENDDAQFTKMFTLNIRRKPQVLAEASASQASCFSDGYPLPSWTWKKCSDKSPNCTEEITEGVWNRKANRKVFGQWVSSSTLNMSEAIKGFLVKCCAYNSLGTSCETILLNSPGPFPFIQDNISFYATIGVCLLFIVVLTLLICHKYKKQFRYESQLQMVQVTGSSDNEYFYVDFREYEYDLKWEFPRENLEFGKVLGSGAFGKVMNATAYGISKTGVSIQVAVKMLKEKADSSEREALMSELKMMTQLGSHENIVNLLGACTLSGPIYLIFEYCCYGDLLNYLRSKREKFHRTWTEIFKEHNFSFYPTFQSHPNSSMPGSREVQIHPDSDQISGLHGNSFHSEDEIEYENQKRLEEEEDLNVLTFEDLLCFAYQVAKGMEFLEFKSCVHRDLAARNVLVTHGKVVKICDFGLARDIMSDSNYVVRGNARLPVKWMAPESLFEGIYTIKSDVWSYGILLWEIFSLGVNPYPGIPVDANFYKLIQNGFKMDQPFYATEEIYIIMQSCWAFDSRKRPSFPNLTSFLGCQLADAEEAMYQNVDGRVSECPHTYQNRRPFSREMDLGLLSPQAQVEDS

[14] = Solubility of compound in simulated gastric fluid at pH 1.2; format: physicochemical
[15] = Solubility of compound in FeSSIF at pH 5.5; format: physicochemical

| Compound | inhibition at 5 min, 10 µM [1] | Papp at 2 h, 1 µM [2] | pKa [3] | logD [4] | efflux ratio at 2 h, 1 µM [5] | IC50 [6] | hepatocyte CLint [7] | solubility [8] | IC50 [9] | microsomal CLint [10] | microsomal CLint [11] | solubility kinetic at 2 h [12] | inhibition [13] | solubility [14] | solubility [15] |
| --- | --- | --- | --- | --- | --- | --- | --- | --- | --- | --- | --- | --- | --- | --- | --- |
| Cn1cc(-c2ccc(CNc3cc(-c4cnc5cc(OCCN6CCCC6)ccn45)ncn3)cc2)cn1 | -78% | 12 ×10⁻⁶ cm/s | 9.1 | 2.9 | 5.4 | 70 nM | 18 µL/min/1e6 cells |  |  |  |  |  |  |  |  |
| COc1ccn2c(-c3cc(NCc4ccc(-c5cnn(C)n5)cc4)ncn3)cnc2c1 |  | 9.5 ×10⁻⁶ cm/s |  | 4 | 0.7 | 78 nM | 8 µL/min/1e6 cells | 4 µg/mL (≈ 9.7 µM) |  |  |  |  |  |  |  |
| Cn1cc(-c2ccc(CNc3cc(-c4cnc5cc(OCCCNC6COC6)ccn45)ncn3)cc2)cn1 | -19% | 9.5 ×10⁻⁶ cm/s | 7.3 | 1.5 | 15 | 56 nM | 10 µL/min/1e6 cells | 16 µg/mL (≈ 31.3 µM) |  |  |  |  |  |  |  |
| Cc1nc(-c2ccc(CNc3cc(-c4cnc5cc(OCCN6CCC(=O)N(C)CC6)ccn45)ncn3)cc2)co1 | -7% | 7.6 ×10⁻⁶ cm/s | 6.3 | 3.2 | 7.5 | 54 nM | 6 µL/min/1e6 cells | 10 µg/mL (≈ 18.1 µM) |  |  |  |  |  |  |  |
| c1ccc2ncc(CNc3cncc(-c4cnc5ccccn45)c3)cc2c1 |  |  |  |  |  |  |  |  | > 10000 nM | 10 µL/min/mg | 10 µL/min/mg |  |  |  |  |
| Cn1cc(-c2ccc(CNc3cc(-c4cnc5cc(OCCO)ccn45)ncn3)cc2)cn1 | -23% | 21 ×10⁻⁶ cm/s |  | 3 | 5 | 75 nM | 9 µL/min/1e6 cells | 13 µg/mL (≈ 29.4 µM) |  |  |  |  |  |  |  |
| CN1CCN(CCOc2ccn3c(-c4cncc(NCc5ccc(N6CCCC6)nc5)c4)cnc3c2)CC1 |  |  |  |  |  | 290 nM |  |  | 11 nM | > 75 µL/min/mg | 10 µL/min/mg | 100 µM (≈ 51.3 µg/mL) |  |  |  |
| COc1ccn2c(-c3cc(NCc4ccc(-c5ccccc5)cc4)ncn3)cnc2c1 |  |  |  |  |  | 160 nM |  |  | 4.6 nM | < 10 µL/min/mg | 10 µL/min/mg | < 2 µM |  |  |  |
| CN1CC(COc2ccn3c(-c4cc(NCc5ccc(-c6cnn(C)c6)cc5)ncn4)cnc3c2)C1 | -59% | 5.7 ×10⁻⁶ cm/s | 9.5 | 1.9 | 57 | 61 nM | 4 µL/min/1e6 cells | 97 µg/mL (≈ 202 µM) |  |  |  |  |  |  |  |
| COCCOc1ccn2c(-c3cc(NCc4ccc(-c5cnn(C)n5)cc4)ncn3)cnc2c1 |  | 6.4 ×10⁻⁶ cm/s |  | 3 | 0.8 | 46 nM | 4 µL/min/1e6 cells |  |  |  |  |  |  |  |  |
| c1ccn2c(-c3cncc(NCc4ccc(N5CCCC5)nc4)c3)cnc2c1 | 90% |  |  |  |  | 720 nM |  |  | 12 nM | > 75 µL/min/mg | > 75 µL/min/mg | 101 µM (≈ 37.4 µg/mL) |  |  |  |
| c1ccn2c(-c3nccc(NCC4CCN(C5CCCC5)CC4)n3)cnc2c1 |  |  |  |  |  |  |  |  | > 10000 nM | > 75 µL/min/mg | 10 µL/min/mg |  |  |  |  |
| CN(C)CCCOc1ccn2c(-c3cc(NCc4ccc(-c5cnn(C)c5)cc4)ncn3)cnc2c1 | -86% |  |  | 2.5 |  | 43 nM |  |  |  |  |  |  |  |  |  |
| CN(Cc1ccc(N2CCCC2)nc1)c1cncc(-c2cnc3ccccn23)c1 |  |  |  |  |  |  |  |  | 240 nM |  |  | 8 µM (≈ 3.08 µg/mL) |  |  |  |
| Cn1cc(-c2ccc(CNc3cc(-c4cnc5cc(OCCCN6CCC(C)(F)CC6)ccn45)ncn3)cc2)cn1 | -4% | 1.8 ×10⁻⁶ cm/s | 8.3 | 4.3 | 1.3 | 73 nM | 10 µL/min/1e6 cells | 2 µg/mL (≈ 3.61 µM) |  |  |  |  |  |  |  |
| COc1ccn2c(-c3cncc(NCc4ccc(N5CCCC5)nc4)c3)cnc2c1 |  |  |  |  |  | 300 nM |  |  | 13 nM | > 75 µL/min/mg | > 75 µL/min/mg | 81 µM (≈ 32.4 µg/mL) |  |  |  |
| c1ccc(-c2ccc(CNc3ccnc(-c4cnc5ccccn45)n3)cc2)cc1 |  |  |  |  |  | 340 nM |  |  | 15 nM | 10 µL/min/mg | 10 µL/min/mg | < 3 µM |  |  |  |
| CC(Nc1cncc(-c2cnc3ccccn23)c1)c1ccc(N2CCCC2)nc1 (centres undefined) |  |  |  |  |  | 2600 nM |  |  | 83 nM | > 75 µL/min/mg | > 75 µL/min/mg | 124 µM (≈ 47.7 µg/mL) |  |  |  |
| COCCOc1ccn2c(-c3cc(NCc4ccc(-c5cnn(C)c5)cc4)ncn3)cnc2c1 | 1% | 12 ×10⁻⁶ cm/s |  | 3.8 | 0.9 | 48 nM | 18 µL/min/1e6 cells | 2 µg/mL (≈ 4.39 µM) |  | > 75 µL/min/mg | 10 µL/min/mg | < 2 µM | Active | 890 µg/mL (≈ 1950 µM) | 13 µg/mL (≈ 28.5 µM) |
| COCCOc1ccn2c(-c3cncc(NCc4ccc(N5CCCC5)nc4)c3)cnc2c1 |  |  |  |  |  | 110 nM |  |  | 12 nM | > 75 µL/min/mg | > 75 µL/min/mg | 9 µM (≈ 4 µg/mL) |  |  |  |
| Cn1cc(-c2ccc(CNc3cc(-c4cnc5cc(OCCN6CCn7nncc7C6)ccn45)ncn3)cc2)cn1 | -8% | 7.6 ×10⁻⁶ cm/s | 5.8 | 2.8 | 18 | 76 nM | < 4 µL/min/1e6 cells | 10 µg/mL (≈ 18.3 µM) |  |  |  |  |  |  |  |
| c1ccn2c(-c3nccc(NCc4ccc(N5CCCC5)cc4)n3)cnc2c1 |  |  |  |  |  | 680 nM |  |  | 5.6 nM |  |  | 7 µM (≈ 2.59 µg/mL) |  |  |  |
| COc1ccn2c(-c3cc(NCc4ccc(-c5cnn(C)c5)cc4)ncn3)cnc2c1 |  |  |  |  |  | 55 nM |  |  |  | < 10 µL/min/mg | < 10 µL/min/mg | < 2 µM |  |  |  |
| c1ccn2c(-c3cc(NCc4ccc(N5CCCC5)nc4)ncn3)cnc2c1 |  |  |  |  |  | 429 nM |  |  |  | > 75 µL/min/mg | 10 µL/min/mg | < 3 µM |  |  |  |
| Cn1cc(-c2ccc(CNc3cc(-c4cnc5cc(OCCN6CCC(C)(C#N)CC6)ccn45)ncn3)cc2)cn1 | -15% | 3.1 ×10⁻⁶ cm/s | 6.9 | 4.4 | 4.7 | 93 nM | 16 µL/min/1e6 cells | 16 µg/mL (≈ 29.2 µM) |  |  |  |  |  |  |  |
